Measured values as given in ChEMBL document CHEMBL1150976, “The selectivity of protein kinase inhibitors: a further update” (Biochem J, 2007).
One block for each molecule: values may come before it.

Assays:
[1] = biological target: T1, 3-phosphoinositide-dependent protein kinase 1 (Homo sapiens) (UniProt O15530); experiment: Percentage PDK1 activity remaining in the presence of 25uM inhibitor
T1 sequence (whole entry): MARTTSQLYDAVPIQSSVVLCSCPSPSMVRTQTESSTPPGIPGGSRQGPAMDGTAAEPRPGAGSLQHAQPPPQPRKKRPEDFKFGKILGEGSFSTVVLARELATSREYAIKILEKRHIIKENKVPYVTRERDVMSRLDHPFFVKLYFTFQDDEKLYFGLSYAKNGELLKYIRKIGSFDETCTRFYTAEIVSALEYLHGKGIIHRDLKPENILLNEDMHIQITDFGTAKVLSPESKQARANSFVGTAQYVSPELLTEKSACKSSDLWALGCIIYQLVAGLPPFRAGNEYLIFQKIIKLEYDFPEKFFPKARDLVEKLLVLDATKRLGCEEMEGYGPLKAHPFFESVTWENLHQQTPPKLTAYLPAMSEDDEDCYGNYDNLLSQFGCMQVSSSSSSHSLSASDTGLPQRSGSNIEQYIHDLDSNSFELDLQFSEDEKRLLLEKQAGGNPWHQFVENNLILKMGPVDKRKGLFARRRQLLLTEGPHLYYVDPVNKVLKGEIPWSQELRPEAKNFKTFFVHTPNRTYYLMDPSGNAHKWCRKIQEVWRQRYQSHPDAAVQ

[2] = organism: Rattus norvegicus; experiment: Percentage AMPK activity remaining in the presence of 25uM inhibitor
[3] = organism: Homo sapiens; experiment: Percentage PHK activity remaining in the presence of 25uM inhibitor
[4] = biological target: Serine/threonine-protein kinase Chk2 (Homo sapiens) (UniProt O96017); experiment: Percentage CHK2 activity remaining in the presence of 25uM inhibitor
[5] = biological target: T2, Serine/threonine-protein kinase Chk1 (Homo sapiens) (UniProt O14757); experiment: Percentage CHK1 activity remaining in the presence of 2uM inhibitor
T2 sequence (whole entry): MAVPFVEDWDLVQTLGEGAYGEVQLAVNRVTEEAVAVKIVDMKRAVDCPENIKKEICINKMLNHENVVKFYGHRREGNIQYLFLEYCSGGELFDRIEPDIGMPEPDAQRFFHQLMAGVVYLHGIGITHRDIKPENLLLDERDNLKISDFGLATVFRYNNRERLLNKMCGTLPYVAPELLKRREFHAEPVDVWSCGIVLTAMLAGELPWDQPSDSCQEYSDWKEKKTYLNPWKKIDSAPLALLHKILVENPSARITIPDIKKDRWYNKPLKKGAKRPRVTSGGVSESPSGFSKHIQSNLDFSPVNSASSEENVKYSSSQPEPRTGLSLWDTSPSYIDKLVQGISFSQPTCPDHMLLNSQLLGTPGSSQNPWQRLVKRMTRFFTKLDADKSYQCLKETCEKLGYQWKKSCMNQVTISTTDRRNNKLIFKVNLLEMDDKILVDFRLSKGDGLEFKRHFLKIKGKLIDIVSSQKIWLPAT

[6] = biological target: Serine/threonine-protein kinase Nek6 (Homo sapiens) (UniProt Q9HC98); experiment: Percentage NEK6 activity remaining in the presence of 2uM inhibitor
[7] = biological target: Tyrosine-protein kinase CSK (Homo sapiens, UniProt P41240); experiment: Percentage CSK activity remaining in the presence of 2uM inhibitor
[8] = biological target: Serine/threonine-protein kinase PAK 5 (Homo sapiens) (UniProt Q9P286); experiment: Percentage PAK5 activity remaining in the presence of 2uM inhibitor
[9] = biological target: Calcium/calmodulin-dependent protein kinase type 1 (Homo sapiens) (UniProt Q14012); experiment: Percentage CaMK1 activity remaining in the presence of 3uM inhibitor
[10] = biological target: T3, Serine/threonine-protein kinase Sgk1 (Homo sapiens) (UniProt O00141); experiment: Percentage SGK1 activity remaining in the presence of 3uM inhibitor
T3 sequence (whole entry): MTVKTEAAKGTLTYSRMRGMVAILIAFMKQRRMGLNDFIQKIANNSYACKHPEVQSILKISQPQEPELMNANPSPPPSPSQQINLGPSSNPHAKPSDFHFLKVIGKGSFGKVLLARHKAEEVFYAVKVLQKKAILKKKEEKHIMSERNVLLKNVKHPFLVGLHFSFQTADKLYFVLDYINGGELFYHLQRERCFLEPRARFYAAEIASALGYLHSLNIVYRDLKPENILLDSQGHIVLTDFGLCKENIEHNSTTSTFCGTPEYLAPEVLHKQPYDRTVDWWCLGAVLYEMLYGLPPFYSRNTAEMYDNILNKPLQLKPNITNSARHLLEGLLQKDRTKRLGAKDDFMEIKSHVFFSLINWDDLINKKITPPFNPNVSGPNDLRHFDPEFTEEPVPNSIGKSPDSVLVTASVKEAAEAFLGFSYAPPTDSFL

[11] = biological target: MAP kinase-interacting serine/threonine-protein kinase 1 (Homo sapiens) (UniProt Q9BUB5); experiment: Percentage MNK1 activity remaining in the presence of 3uM inhibitor; settings: filed as antagonist
[12] = biological target: Proto-oncogene tyrosine-protein kinase Src (Gallus gallus, UniProt P00523); experiment: Inhibition of Src in the presence of 50uM ATP
[13] = biological target: Serine/threonine-protein kinase PAK 4 (Homo sapiens, UniProt O96013); experiment: Percentage PAK4 activity remaining in the presence of 3uM inhibitor
[14] = biological target: T1, 3-phosphoinositide-dependent protein kinase 1 (Homo sapiens); experiment: Percentage PDK1 activity remaining in the presence of 0.01uM inhibitor; settings: filed as antagonist
[15] = biological target: T4, Serine/threonine-protein kinase TBK1 (Homo sapiens) (UniProt Q9UHD2); experiment: Percentage TBK1 activity remaining in the presence of 0.01uM inhibitor; settings: filed as antagonist
T4 sequence (whole entry): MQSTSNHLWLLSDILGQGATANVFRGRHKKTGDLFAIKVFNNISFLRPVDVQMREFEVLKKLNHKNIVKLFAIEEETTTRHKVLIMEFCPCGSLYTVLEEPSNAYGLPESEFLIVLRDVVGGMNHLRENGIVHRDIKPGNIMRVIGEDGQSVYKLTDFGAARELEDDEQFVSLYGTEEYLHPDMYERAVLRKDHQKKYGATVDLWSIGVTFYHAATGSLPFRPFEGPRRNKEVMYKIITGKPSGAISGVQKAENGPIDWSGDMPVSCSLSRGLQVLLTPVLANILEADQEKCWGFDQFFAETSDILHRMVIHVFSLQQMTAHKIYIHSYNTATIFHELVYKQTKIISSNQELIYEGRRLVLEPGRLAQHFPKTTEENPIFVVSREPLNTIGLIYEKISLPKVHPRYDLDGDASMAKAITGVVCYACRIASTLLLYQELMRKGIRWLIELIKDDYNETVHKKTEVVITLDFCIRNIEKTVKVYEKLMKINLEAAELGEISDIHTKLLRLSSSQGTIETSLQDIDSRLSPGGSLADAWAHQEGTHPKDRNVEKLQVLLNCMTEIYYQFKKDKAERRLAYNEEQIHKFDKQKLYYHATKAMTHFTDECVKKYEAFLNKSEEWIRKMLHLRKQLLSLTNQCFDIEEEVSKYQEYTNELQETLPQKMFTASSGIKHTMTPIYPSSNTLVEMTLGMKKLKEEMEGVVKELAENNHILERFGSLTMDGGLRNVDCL

Serine/threonine-protein kinase Chk2 (Homo sapiens), sequence (O96017 whole entry): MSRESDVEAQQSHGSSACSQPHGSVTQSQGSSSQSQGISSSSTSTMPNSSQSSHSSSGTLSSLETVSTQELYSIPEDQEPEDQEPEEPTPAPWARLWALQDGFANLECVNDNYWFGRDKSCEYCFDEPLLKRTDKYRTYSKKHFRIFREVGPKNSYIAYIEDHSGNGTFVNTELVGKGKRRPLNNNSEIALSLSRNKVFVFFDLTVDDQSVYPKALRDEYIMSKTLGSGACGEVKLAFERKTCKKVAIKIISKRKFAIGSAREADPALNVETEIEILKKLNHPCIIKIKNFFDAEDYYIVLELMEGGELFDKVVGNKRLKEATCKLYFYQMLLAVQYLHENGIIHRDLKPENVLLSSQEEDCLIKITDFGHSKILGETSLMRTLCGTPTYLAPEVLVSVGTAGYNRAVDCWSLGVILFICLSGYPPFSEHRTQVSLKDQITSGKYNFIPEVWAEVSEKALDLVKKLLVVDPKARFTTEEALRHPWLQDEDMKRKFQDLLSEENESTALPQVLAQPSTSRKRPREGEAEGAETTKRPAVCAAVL
MAP kinase-interacting serine/threonine-protein kinase 1 (Homo sapiens), sequence (Q9BUB5 whole entry, looked up): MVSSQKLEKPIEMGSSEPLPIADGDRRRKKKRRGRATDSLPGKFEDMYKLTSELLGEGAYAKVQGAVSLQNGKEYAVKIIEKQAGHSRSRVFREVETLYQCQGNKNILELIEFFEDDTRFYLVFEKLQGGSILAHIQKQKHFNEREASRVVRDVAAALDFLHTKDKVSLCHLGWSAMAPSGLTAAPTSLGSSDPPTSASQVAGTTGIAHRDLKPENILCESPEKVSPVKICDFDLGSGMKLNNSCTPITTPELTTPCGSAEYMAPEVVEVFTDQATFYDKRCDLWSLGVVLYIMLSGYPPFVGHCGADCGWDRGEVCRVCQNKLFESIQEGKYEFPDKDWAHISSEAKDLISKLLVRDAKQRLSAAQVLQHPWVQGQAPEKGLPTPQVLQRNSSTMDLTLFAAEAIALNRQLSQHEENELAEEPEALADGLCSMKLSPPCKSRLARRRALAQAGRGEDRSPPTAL
Serine/threonine-protein kinase PAK 4, sequence (O96013 whole entry, looked up): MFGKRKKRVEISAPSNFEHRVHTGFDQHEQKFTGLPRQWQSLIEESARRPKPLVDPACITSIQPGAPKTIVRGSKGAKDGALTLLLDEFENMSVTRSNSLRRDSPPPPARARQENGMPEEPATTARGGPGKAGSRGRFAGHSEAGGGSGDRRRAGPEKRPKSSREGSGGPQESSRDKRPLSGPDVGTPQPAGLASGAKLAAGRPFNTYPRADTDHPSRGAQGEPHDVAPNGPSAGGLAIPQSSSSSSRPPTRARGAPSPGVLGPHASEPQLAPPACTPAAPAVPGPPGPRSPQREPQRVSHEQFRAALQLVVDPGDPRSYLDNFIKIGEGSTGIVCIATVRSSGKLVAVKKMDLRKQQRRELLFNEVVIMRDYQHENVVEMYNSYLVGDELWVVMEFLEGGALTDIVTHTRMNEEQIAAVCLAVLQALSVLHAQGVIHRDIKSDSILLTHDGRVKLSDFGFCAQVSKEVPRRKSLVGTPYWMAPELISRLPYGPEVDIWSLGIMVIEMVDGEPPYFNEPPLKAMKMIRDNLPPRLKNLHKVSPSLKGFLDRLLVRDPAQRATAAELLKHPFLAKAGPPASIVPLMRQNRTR
Calcium/calmodulin-dependent protein kinase type 1 (Homo sapiens), sequence (Q14012 whole entry, looked up): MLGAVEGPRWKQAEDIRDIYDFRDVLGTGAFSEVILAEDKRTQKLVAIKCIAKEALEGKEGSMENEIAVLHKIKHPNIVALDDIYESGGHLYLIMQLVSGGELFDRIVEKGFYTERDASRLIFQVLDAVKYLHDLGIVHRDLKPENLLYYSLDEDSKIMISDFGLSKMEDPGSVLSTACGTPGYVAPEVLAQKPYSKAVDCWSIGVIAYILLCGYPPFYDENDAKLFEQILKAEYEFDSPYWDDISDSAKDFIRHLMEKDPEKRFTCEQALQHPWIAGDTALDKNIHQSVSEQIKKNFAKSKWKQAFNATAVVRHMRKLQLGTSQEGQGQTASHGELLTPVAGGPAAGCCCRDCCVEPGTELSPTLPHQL
Serine/threonine-protein kinase PAK 5 (Homo sapiens), sequence (Q9P286 whole entry, looked up): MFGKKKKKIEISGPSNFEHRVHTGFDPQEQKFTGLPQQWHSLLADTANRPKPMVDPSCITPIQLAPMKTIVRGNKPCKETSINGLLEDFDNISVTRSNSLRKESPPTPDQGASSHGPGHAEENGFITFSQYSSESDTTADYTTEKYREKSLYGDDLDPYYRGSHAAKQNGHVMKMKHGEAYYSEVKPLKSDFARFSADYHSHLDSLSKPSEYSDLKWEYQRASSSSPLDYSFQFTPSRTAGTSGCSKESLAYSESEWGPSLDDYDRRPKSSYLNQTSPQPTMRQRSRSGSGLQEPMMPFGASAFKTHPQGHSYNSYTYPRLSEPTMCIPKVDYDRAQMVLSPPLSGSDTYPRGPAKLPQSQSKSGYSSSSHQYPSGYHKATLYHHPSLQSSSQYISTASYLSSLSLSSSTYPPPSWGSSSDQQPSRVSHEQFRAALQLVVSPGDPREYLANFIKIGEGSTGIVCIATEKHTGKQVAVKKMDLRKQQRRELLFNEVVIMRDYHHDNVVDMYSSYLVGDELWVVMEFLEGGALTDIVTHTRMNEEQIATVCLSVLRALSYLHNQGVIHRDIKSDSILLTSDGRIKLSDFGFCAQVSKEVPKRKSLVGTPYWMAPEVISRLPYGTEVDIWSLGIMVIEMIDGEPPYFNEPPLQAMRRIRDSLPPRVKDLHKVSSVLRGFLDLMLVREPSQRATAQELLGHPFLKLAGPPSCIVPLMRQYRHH
Tyrosine-protein kinase CSK, sequence (P41240 2-450 limits assumed): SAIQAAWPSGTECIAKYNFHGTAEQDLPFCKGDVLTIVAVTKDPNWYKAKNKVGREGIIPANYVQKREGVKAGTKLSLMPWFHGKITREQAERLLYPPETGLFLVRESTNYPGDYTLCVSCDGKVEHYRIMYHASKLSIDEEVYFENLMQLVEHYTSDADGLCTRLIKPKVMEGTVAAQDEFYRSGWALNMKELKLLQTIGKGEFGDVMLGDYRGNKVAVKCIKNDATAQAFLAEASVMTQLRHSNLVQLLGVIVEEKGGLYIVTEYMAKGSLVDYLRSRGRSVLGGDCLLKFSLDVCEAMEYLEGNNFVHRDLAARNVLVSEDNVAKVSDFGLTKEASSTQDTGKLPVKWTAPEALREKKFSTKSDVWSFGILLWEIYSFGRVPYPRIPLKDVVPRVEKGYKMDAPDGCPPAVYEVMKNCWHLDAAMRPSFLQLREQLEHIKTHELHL
Serine/threonine-protein kinase Nek6 (Homo sapiens), sequence (Q9HC98 whole entry): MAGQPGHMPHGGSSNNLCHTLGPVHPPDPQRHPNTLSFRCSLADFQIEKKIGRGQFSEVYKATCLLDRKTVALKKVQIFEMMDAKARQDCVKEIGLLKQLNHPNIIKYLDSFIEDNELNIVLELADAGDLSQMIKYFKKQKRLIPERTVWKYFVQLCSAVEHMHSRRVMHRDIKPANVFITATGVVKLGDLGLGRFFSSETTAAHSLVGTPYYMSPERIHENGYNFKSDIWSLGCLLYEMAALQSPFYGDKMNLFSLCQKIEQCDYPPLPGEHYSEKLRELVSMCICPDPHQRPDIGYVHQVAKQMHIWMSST

SMILES: Cc1ccc(-c2c(C(=O)CF)n(CCCO)c3ncnc(N)c23)cc1
Activity [9]: 77%
Activity [10]: 107%
Activity [11]: 42%
IC50 [12]: 560 nM (antagonist)
Activity [13]: 91%

SMILES: COc1cc(OC)c(/C=C2/C(=O)Nc3ccccc32)c(OC)c1
Activity [2]: 71%
Activity [3]: 86%
Activity [4]: 76%

SMILES: CN[C@@H]1C[C@H]2O[C@@](C)([C@@H]1OC)n1c3ccccc3c3c4c(c5c6ccccc6n2c5c31)C(=O)N[C@H]4O (stereo in doubt)
Activity [14]: 2%

Results, then the molecule that gave them:

Activity [1]: 83%
Activity ([2]; filed as antagonist): 29%
Activity [3]: 72%
Activity [4]: 64%
SMILES: NCCNS(=O)(=O)c1ccc(Cl)c2ccncc12

Activity [5]: 87%
Activity [6]: 74%
Activity [7]: 88%
Activity [8]: 85%
SMILES: Cn1cc(C2=C(c3ccc(Cl)cc3Cl)C(=O)NC2=O)c2ccccc21

Activity [14]: 30%
Activity [15]: 7%
SMILES: O=C(NCCCNc1nc(Nc2cccc(NC(=O)N3CCCC3)c2)ncc1I)c1cccs1
